Test system: MDA MB 231 cells
Assay: In vivo study in mice, MDA MB 231 tumour growth
Design: species or system Athymic Nude female mice
Conditions: 25 mg/kg twice a day by oral gavage, 10 days
Procedure: The effect of Example 1 on tumor growth rate in mice was also investigated.
5×10^6 MDA MB 231 cells (obtained from Professor Eric Aboagye, Hammersmith Hospital; cell type: triple negative breast cancer) were resuspended in PBS, and 50 μl of cells/PBS was mixed with 50 μl of Matrigel to provide a total volume of 100 μL containing 50% Matrigel. The suspension was injected into the right flank in 16 Athymic Nude female mice. Mice were five to six weeks old and obtained from Charles Rivers Laboratories. All of the experiments were carried out under London Home Office license authority and London Home Office Ethics Committee guidelines. When the tumour mass reached 50 mm3, the animals were randomized (8 per group) and treated for 10 days with PBS solution (control group) or 25 mg/kg of Example 1 suspended in PBS twice a day by oral gavage. Tumor growth rates were analyzed by caliper measurements every day after the start of the treatment period with Example 1 (“NMTi”) or the control (“PBS”). Tumor volume was calculated according to the formula: […]. Weight of the mice was also measured every day after the start of the treatment period with Example 1 (“NMTi”) or the control (“PBS”). Mice were euthanised when the tumor size exceeded 15 mm in diameter in any direction.

Cc1c(CCOc2cc(Cl)ccc2-c2ccc3ncc(CCN)n3c2)c(C(=O)N(C)C)nn1C [Example Compound 1, 4-(2-{2-[3-(2-aminoethyl)imidazo[1,2-a]pyridin-6-yl]-5-chlorophenoxy}ethyl)-N,N,1,5-tetramethyl-1H-pyrazole-3-carboxamide] was tested, and the “weight change in the mice” value was “No weight change” and the tumour growth rate (vs PBS control) was “reduced”.

Reference: patent US12304909B2, “Compounds and their use in therapy” (IMPERIAL COLLEGE INNOVATIONS LIMITED, priority 2018, dated 2025)
